Assay results as given in PMC7614683, “A small molecule PI3Kα activator for cardioprotection and neuroregeneration” (Nature, 2023).
Where two headings read alike, the source gives them in different places.

How the values were obtained:
Experiment in all cases: SelectScreen Z-LYTE kinase activity assay (SI Table 6)
Assay type in all cases: biochemical
[1] = target: protein kinases of the Z-LYTE panel (Homo sapiens, UniProt Q15303)
Procedure, shortened: (§1)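 Kinases in the SelectScreen panel (Adapta, LanthaScreen binding, Z-LYTE formats) were tested against compound at 1 μM. Separately, ATM (100 nM, 5 μM GST-p53, 1 mM ATP, 30 min, 30°C) and mTORC1 (50 nM, 15 μM 4E-BP1, 250 μM ATP, 3 h) were run with 200 μM compound. Those products were read on Phos-tag gels.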

[2] = target: protein kinases of the Z-LYTE panel (Homo sapiens, UniProt P04629)
Procedure, shortened: as §1

[3] = target: T1, protein kinases of the Z-LYTE panel (Homo sapiens, UniProt P51813)
T1 sequence (P51813 1-675): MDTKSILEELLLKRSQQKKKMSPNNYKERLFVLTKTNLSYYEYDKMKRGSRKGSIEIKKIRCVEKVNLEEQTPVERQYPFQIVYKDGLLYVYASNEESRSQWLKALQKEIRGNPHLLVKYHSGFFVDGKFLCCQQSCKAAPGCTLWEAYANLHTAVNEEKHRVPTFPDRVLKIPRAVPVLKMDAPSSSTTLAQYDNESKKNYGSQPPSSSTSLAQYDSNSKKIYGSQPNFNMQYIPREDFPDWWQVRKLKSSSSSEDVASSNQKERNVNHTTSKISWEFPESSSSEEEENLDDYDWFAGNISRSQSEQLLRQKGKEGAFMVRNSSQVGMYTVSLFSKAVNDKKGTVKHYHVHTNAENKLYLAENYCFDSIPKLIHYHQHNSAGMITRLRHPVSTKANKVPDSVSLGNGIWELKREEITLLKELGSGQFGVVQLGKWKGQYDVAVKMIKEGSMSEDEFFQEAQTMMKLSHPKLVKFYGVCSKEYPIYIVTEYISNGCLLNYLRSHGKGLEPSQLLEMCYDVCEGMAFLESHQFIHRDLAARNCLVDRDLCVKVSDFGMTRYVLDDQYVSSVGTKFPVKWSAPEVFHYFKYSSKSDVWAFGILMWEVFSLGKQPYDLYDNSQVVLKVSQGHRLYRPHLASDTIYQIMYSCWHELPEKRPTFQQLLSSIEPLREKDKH
Procedure, shortened: as §1

[4] = target: protein kinases of the Z-LYTE panel (Homo sapiens, UniProt O75116)
Procedure, shortened: as §1

[5] = target: protein kinases of the Z-LYTE panel (Homo sapiens, UniProt P49841)
Procedure, shortened: as §1

[6] = target: protein kinases of the Z-LYTE panel (Homo sapiens, UniProt P19784)
Procedure, shortened: as §1

[7] = target: protein kinases of the Z-LYTE panel (Homo sapiens, UniProt P49760)
Procedure, shortened: as §1

[8] = target: protein kinases of the Z-LYTE panel (Homo sapiens, UniProt P04626)
Procedure, shortened: as §1

protein kinases of the Z-LYTE panel (Homo sapiens, UniProt P19784), sequence (P19784 whole entry): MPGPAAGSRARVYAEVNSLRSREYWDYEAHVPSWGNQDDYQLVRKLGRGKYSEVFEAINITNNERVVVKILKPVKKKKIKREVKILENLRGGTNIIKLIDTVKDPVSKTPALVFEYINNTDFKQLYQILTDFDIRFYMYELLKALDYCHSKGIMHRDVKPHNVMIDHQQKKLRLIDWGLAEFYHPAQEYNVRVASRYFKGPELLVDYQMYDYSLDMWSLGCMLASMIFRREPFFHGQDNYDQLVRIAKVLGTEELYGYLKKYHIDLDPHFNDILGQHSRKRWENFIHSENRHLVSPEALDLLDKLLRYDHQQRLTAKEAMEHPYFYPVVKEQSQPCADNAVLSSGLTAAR
protein kinases of the Z-LYTE panel (Homo sapiens, UniProt P04629), sequence (P04629 33-796): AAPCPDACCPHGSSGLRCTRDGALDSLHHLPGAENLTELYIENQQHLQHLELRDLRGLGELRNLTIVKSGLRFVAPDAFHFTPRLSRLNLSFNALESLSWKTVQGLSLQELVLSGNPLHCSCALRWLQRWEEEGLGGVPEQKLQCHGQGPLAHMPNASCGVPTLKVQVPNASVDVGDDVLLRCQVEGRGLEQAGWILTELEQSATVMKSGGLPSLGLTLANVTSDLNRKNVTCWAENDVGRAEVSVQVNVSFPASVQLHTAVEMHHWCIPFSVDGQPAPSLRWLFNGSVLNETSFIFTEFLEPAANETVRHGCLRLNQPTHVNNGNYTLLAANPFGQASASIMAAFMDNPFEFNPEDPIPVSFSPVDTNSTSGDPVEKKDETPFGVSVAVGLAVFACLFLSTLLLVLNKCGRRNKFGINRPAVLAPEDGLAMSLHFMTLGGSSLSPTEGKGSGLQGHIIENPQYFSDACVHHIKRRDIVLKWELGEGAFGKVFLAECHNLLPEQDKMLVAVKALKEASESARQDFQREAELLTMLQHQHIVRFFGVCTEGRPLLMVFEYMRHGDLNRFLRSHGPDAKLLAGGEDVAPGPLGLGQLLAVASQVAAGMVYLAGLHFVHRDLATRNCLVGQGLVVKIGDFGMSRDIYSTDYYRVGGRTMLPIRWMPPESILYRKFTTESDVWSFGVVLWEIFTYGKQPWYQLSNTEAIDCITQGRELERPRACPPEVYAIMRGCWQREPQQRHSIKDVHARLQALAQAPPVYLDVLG
protein kinases of the Z-LYTE panel (Homo sapiens, UniProt P49760), sequence (P49760 whole entry): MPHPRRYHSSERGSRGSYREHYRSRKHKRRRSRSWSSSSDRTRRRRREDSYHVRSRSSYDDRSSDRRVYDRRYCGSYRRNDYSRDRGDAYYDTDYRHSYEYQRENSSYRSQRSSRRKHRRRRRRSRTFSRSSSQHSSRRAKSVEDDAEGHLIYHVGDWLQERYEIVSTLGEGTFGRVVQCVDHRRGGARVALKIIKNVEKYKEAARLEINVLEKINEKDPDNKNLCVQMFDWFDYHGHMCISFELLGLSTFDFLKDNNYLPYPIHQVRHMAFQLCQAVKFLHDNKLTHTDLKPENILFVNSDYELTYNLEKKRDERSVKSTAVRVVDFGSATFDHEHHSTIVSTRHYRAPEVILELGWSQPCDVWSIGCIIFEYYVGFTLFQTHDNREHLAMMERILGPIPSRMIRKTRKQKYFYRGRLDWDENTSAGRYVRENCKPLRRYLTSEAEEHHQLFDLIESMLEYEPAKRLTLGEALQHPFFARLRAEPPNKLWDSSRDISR
protein kinases of the Z-LYTE panel (Homo sapiens, UniProt P04626), sequence (P04626 23-1255): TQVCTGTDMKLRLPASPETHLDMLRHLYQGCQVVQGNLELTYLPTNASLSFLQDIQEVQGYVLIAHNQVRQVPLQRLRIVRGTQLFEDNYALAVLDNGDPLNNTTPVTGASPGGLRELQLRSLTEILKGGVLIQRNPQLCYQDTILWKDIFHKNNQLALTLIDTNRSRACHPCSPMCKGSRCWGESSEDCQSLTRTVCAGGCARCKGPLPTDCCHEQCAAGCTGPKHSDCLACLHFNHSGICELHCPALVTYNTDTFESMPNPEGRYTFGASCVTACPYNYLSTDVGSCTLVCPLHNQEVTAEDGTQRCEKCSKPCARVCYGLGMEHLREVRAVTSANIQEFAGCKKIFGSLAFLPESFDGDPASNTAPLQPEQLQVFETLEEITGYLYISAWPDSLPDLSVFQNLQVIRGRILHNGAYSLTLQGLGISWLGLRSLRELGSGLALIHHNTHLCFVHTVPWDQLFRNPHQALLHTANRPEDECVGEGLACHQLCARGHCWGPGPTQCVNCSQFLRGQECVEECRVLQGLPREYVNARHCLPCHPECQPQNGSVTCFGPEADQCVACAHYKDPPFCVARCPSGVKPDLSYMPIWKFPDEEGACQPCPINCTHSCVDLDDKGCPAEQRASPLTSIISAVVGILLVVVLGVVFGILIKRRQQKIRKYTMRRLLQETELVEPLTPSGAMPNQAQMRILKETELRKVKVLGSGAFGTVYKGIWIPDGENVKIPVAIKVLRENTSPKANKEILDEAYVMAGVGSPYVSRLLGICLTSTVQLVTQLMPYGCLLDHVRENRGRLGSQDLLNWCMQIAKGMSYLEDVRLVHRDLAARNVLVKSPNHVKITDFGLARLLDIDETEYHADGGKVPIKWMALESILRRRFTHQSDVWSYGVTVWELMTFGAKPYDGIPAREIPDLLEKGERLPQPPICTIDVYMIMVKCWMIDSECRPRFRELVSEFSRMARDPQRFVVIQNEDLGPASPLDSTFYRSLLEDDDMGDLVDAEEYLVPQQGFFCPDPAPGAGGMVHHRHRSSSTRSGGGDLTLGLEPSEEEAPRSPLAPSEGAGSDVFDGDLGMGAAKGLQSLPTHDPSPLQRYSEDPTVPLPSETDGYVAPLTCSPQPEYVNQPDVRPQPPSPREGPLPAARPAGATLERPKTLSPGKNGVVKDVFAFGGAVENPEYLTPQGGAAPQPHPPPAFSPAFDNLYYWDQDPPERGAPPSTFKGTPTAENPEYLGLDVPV
protein kinases of the Z-LYTE panel (Homo sapiens, UniProt P49841), sequence (P49841 whole entry): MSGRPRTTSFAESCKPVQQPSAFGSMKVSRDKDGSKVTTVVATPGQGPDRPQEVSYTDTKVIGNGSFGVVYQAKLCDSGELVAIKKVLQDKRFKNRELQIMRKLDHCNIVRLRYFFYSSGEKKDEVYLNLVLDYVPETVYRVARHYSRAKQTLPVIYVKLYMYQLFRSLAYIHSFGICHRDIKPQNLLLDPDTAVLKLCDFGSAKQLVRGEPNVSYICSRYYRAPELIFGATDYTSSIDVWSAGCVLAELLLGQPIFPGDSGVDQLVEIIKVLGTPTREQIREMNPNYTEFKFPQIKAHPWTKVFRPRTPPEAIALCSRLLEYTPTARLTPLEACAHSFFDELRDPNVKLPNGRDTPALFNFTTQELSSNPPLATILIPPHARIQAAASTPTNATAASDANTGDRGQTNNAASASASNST
protein kinases of the Z-LYTE panel (Homo sapiens, UniProt O75116), sequence (O75116 whole entry): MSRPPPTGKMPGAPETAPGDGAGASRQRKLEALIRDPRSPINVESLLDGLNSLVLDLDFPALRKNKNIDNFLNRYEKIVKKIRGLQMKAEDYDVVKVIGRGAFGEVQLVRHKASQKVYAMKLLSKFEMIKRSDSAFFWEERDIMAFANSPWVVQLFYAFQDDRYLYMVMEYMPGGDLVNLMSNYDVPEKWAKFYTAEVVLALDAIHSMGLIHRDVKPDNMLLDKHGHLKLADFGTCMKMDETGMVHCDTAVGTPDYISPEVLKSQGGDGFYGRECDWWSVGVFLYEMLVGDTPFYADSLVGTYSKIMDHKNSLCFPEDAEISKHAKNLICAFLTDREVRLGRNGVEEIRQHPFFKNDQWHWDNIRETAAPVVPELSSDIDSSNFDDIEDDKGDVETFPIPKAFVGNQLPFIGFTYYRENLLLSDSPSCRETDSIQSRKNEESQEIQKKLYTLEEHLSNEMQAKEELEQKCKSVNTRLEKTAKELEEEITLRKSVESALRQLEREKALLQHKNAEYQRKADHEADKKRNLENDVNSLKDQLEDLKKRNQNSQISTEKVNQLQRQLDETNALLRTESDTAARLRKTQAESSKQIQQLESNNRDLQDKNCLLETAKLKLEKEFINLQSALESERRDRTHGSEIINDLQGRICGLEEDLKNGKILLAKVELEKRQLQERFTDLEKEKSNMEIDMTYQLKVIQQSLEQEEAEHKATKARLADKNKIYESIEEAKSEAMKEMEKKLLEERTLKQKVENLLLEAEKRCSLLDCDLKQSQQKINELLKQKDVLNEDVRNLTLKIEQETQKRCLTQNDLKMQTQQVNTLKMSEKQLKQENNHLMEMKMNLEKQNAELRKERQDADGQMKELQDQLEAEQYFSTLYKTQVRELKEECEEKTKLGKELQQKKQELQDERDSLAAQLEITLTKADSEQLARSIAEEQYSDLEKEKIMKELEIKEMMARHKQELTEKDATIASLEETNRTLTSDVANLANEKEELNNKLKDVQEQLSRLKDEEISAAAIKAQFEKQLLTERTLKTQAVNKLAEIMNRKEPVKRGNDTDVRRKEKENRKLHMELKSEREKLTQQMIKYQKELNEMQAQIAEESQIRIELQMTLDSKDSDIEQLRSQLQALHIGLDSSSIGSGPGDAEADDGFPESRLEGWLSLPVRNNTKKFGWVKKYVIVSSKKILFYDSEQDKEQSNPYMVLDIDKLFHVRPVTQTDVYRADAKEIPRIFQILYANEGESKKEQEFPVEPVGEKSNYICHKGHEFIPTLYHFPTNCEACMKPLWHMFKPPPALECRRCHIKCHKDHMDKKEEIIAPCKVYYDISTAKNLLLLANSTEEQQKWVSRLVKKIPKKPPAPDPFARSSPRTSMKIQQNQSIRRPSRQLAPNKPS

CCN1CCN(c2ccc(Nc3cc(Nc4cccc5c4N(C(C)=O)CC5)ccn3)cc2)CC1 [Compound 1938]
inhibition at 1 µM ([1]; read-out: % Inhibition Point 1): 9%
inhibition at 1 µM ([1]; read-out: % Inhibition Point 2): 9.48%
inhibition at 1 µM ([1]; read-out: % Inhibition mean): 9%
inhibition at 1 µM ([2]; read-out: % Inhibition Point 1): 26%
inhibition at 1 µM ([2]; read-out: % Inhibition Point 2): 20%
inhibition at 1 µM ([2]; read-out: % Inhibition mean): 23%
inhibition at 1 µM ([3]; read-out: % Inhibition Point 1): 19%
inhibition at 1 µM ([3]; read-out: % Inhibition Point 2): 25%
inhibition at 1 µM ([3]; read-out: % Inhibition mean): 22%
inhibition at 1 µM ([4]; read-out: % Inhibition Point 1): 1.58%
inhibition at 1 µM ([4]; read-out: % Inhibition Point 2): 0.0356%
inhibition at 1 µM ([4]; read-out: % Inhibition mean): 0.807%
inhibition at 1 µM ([5]; read-out: % Inhibition Point 1): 5.38%
inhibition at 1 µM ([5]; read-out: % Inhibition Point 2): 5%
inhibition at 1 µM ([5]; read-out: % Inhibition mean): 5%
inhibition at 1 µM ([6]; read-out: % Inhibition Point 1): 0.87%
inhibition at 1 µM ([6]; read-out: % Inhibition Point 2): 2.67%
inhibition at 1 µM ([6]; read-out: % Inhibition mean): 1.77%
inhibition at 1 µM ([7]; read-out: % Inhibition Point 1): 2.33%
inhibition at 1 µM ([7]; read-out: % Inhibition Point 2): 1.66%
inhibition at 1 µM ([7]; read-out: % Inhibition mean): 2%
inhibition at 1 µM ([8]; read-out: % Inhibition Point 1): -2.48%
inhibition at 1 µM ([8]; read-out: % Inhibition Point 2): 2.33%
inhibition at 1 µM ([8]; read-out: % Inhibition mean): -0.0739%
